Experimental findings from patent US8436012B2, “Imidazopyridin-2-one derivatives” (Daiichi Sankyo Company, Limited, priority 2008, dated 2013) are described below.

In general, pIC50 refers to −log10 of the IC50, conventionally taken in molar units.

pIC50: −log10 of the molar value.

The target in one assay is T1, human mTOR (Homo sapiens, UniProt P42345).
T1 construct: the portion corresponding to 1362-2549aa at the C terminus of human mTOR; made in house
The experiment in a line: mTOR Kinase Activity Inhibition Test. The format is biochemical. The following applies: His-tagged mTOR (1362C), biotinylated peptide substrate, ATP, 3 hours at room temperature, fluorescence resonance energy transfer 665 nm/620 nm; read-out: IC50 value of mTOR enzyme inhibitory activity. As for the experimental part: The kinase activity of mTOR was measured in the presence or absence of a test compound. A substrate peptide is phosphorylated by mTOR kinase activity. A complex of streptavidin-XL665 and anti-phosphorylated S6K (Thr389) antibody/anti-mouse IgG-cryptate binds to this phosphorylated peptide. At this moment, fluorescence resonance energy transfer takes place from antibody/anti-mouse IgG-cryptate exposed to light excitation to XL665, which results in emission of fluorescence at 665 nm. The mTOR kinase activity is detected using this principle.
(1) Sample Preparation and Enzymatic Reaction
An HEK293 cell line that constitutively expresses a His tag fused human mTOR has been established. His tag was introduced into the N terminus of the portion corresponding to 1362-2549aa at the C terminus of human mTOR. Cell lysate was prepared from this HEK293 cell line constitutively expressing His-tagged mTOR (1362C), and His-tagged mTOR (1362C) was purified using the His tag affinity according to a conventional method.
Next, an mTOR enzyme solution was prepared, which contains the aforementioned His-tagged mTOR (1362C) enzyme, 8 μg/mL of biotinylated peptide (Biotin-Ahx-[…]-amide (Sigma)), as well as 50 mM HEPES (pH 7.5), 20 mM MnCl2, 1 mg/ml BSA, an appropriate amount of protease inhibitor cocktail (Complete EDTA free, Roche), 100 ng/ml Calyculin A, 4 μg/ml Cantharidin and 10 mM DTT as other components.
The test compound was dissolved in DMSO, and serial dilutions were prepared with 20 μM ATP solution (50 mM HEPES (pH 7.5), 20 μM ATP) to achieve concentrations necessary for the assay. 5 μL of this compound solution was applied to each well of a 384 well small volume white Greiner plate.
5 μL of mTOR enzyme solution was added to the aforementioned well containing the test compound. After mixing, the mixture was incubated at room temperature for 3 hours to carry out the enzymatic reaction.
The same operation was performed with a solution of DMSO in 20 μM ATP solution as a positive control and with a solution of DMSO in 50 mM HEPES (pH 7.5) as a negative control.
(2) Detection of Enzymatic Reaction
After the enzymatic reaction, 5 μl each of an europium solution (a solution of anti-mouse IgG-cryptate (SCETI Medical Labo K.K.) and anti-phosphorylated S6K (Thr389) antibody (Cell Signaling Technology Inc.) in 50 mM HEPES (pH 7.5), 100 mM EDTA and 1.5 mg/ml BSA) and an XL665 solution (a solution of streptavidin-XL665 (SCETI Medical Labo K.K.) in 50 mM HEPES (pH 7.5), 100 mM EDTA, 0.8 M KF and 1.5 mg/ml BSA) were added in this order and then mixed. The mixture was incubated at 4° C. overnight. On the following day, the mixture was returned to room temperature and irradiated with excitation light at 337 nm. Fluorescence at 620 nm and fluorescence at 665 nm were measured with RUBYstar (BMG).
The mTOR inhibitory activity (%) was calculated using the ratio calculated from the measured values as an index of enzyme activity. Here, the ratio was calculated from the following formula (I). Ratio=10000×665 nm fluorescence value/620 nm fluorescence value (1)
The mTOR enzyme inhibitory activity (%) was calculated from the following formula (2). mTOR enzyme inhibitory activity (%)=100×[(P−S)/(P−N)] (2)
P: Ratio in well of positive control
N: Ratio in well of negative control
S: Ratio in well containing test compound
Further, an optimal curve was calculated based upon each concentration of the test compound prepared in serial dilutions and the mTOR enzyme inhibitory activity (%) at that concentration. The concentration at which 50% inhibition occurred was calculated as the IC50 value of mTOR enzyme inhibitory activity.

The subject of another assay is WM-266-4 cells. The experiment in a line: Cell Proliferation Inhibitory Test. The format is cell-based. The following applies: Homo sapiens, 72 h, cultured three days with test compound, MTT, read-out: 50% cell proliferation inhibitory activity (GI50 value). The protocol:
WM-266-4 cells (ATCC, USA) were seeded in a 96-well plate and cultured overnight. Then, serial dilutions of the sample containing the test compound were prepared, added to each well and cultured another three days. Thereafter, the cell amount in each well was measured by MTT (MOSMANN, T., Rapid colorimetric assay for cellular growth and survival: application to proliferation and cytotoxicity assays. J. Immunol. Methods, 65, 55-63 (1983)). The 50% cell proliferation inhibitory activity (GI50 value) was calculated from the following formula (3). 100×[(T−T0)/(C−T0)]=50 (3)
Here, T represents values from the test compound added wells, C represents the value from the well to which the test compound was not added for three days, and To represents an initial measured value at the time of addition of the test compound.

T1 sequence (P42345 1362-2549): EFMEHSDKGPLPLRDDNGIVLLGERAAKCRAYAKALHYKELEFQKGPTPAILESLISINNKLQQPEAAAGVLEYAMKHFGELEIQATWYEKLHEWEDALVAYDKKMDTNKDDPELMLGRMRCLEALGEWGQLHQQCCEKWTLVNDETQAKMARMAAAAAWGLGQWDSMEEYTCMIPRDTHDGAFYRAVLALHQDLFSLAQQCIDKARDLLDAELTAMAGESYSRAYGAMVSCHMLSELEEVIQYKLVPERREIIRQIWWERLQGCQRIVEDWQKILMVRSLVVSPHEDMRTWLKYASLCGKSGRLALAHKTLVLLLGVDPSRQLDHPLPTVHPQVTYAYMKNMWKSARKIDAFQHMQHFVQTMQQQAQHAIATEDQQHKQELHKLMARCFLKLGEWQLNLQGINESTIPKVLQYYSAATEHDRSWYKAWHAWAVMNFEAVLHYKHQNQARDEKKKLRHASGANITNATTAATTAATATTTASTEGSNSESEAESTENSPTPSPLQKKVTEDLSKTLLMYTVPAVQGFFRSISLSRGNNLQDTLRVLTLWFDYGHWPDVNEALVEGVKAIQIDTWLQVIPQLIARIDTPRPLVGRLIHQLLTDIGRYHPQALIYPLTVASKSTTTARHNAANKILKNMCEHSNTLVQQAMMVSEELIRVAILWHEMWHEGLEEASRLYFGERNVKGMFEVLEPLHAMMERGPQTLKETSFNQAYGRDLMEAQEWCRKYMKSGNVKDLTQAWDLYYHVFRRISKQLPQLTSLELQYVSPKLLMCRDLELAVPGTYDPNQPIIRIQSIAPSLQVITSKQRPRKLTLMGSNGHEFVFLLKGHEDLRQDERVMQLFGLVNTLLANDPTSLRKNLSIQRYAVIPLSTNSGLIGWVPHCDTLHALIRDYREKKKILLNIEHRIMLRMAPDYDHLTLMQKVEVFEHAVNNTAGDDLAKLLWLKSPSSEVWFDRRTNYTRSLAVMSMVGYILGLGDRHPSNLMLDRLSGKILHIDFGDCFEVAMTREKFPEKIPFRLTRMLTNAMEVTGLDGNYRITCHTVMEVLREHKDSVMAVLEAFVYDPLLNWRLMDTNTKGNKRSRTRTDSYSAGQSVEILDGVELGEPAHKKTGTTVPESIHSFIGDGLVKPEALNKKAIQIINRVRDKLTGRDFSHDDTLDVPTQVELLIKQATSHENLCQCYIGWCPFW

As to `O=c1[nH]c2ncc(-c3cnc4[nH]ncc4c3)cc2n1CC1CCOCC1` [Example 74, 6-(1H-Pyrazolo[3,4-b]pyridin-5-yl)-1-(tetrahydro-2H-pyran-4-ylmethyl)-1,3-dihydro-2H-imidazo[4,5-b]pyridin-2-one], on human mTOR, the negative logarithm of the IC50 (pIC50) was 5.30 to 7.00. Also, the GI50 with WM-266-4 cells was in the range of 3000 to 25000 nM.

With `Cc1c(-c2cnc3[nH]c(=O)n(C[C@H]4COCCO4)c3c2)cc(F)c2[nH]ccc12` [Example 128, 1-[(2S)-1,4-Dioxan-2-ylmethyl]-6-(7-fluoro-4-methyl-1H-indol-5-yl)-1,3-dihydro-2H-imidazo[4,5-b]pyridin-2-one], at human mTOR, the negative-log IC50 (pIC50) is greater than 7.30. The GI50 in the assay with WM-266-4 cells was less than 3000 nM.

In the case of `CC1(Cn2c(=O)[nH]c3ncc(-c4cnc5[nH]ccc5c4)cc32)CCOCC1` [Example 25, 1-[(4-Methyltetrahydro-2H-pyran-4-yl)methyl]-6-(1H-pyrrolo[2,3-b]pyridin-5-yl)-1,3-dihydro-2H-imidazo[4,5-b]pyridin-2-one], the negative logarithm of the IC50 (pIC50) on human mTOR was greater than 7.30. In the assay with WM-266-4 cells, the GI50 was less than 3000 nM.

Turning to `CO[C@@H]1CCO[C@H](Cn2c(=O)[nH]c3ncc(-c4cnc5[nH]ccc5c4C)cc32)C1` [Example 140, 2,6-Anhydro-1,3,5-trideoxy-4-O-methyl-1-[6-(4-methyl-1H-pyrrolo[2,3-b]pyridin-5-yl)-2-oxo-2,3-dihydro-1H-imidazo[4,5-b]pyridin-1-yl]-D-threo-hexitol], the negative logarithm of the IC50 (pIC50) on human mTOR was greater than 7.30. The GI50 in the assay with WM-266-4 cells was less than 3000 nM.

For the compound `Cc1c(-c2cnc3[nH]c(=O)n(C[C@H]4CC[C@@H](O)CO4)c3c2)cnc2[nH]cc(Cl)c12` [Example 145, 2,6-Anhydro-1-[6-(3-chloro-4-methyl-1H-pyrrolo[2,3-b]pyridin-5-yl)-2-oxo-2,3-dihydro-1H-imidazo[4,5-b]pyridin-1-yl]-1,3,4-trideoxy-L-threo-hexitol], the negative logarithm of the IC50 (pIC50) on human mTOR is greater than 7.30. In addition, in the assay on WM-266-4 cells, the GI50 is less than 3000 nM.

For `O=c1[nH]c2ncc(-c3cc4cc[nH]c4cc3F)cc2n1CC1CCOCC1` [Example 28, 6-(6-Fluoro-1H-indol-5-yl)-1-(tetrahydro-2H-pyran-4-ylmethyl)-1,3-dihydro-2H-imidazo[4,5-b]pyridin-2-one], at human mTOR, the negative logarithm of the IC50 (pIC50) is greater than 7.30. The GI50 in the assay with WM-266-4 cells was less than 3000 nM.

On to `Cc1c[nH]c2ncc(-c3cnc4[nH]c(=O)n(C[C@H]5C[C@@H](O)CCO5)c4c3)c(C)c12` [Example 150, 2,6-Anhydro-1,3,5-trideoxy-1-[6-(3,4-dimethyl-1H-pyrrolo[2,3-b]pyridin-5-yl)-2-oxo-2,3-dihydro-1H-imidazo[4,5-b]pyridin-1-yl]-L-threo-hexitol], for which, on human mTOR, the negative-log IC50 (pIC50) was greater than 7.30. In addition, in the assay with WM-266-4 cells, the GI50 was less than 3000 nM.

`CNC(=O)c1c[nH]c2ncc(-c3cnc4[nH]c(=O)n(CC5CCOCC5)c4c3)cc12` [Example 94, N-Methyl-5-[2-oxo-1-(tetrahydro-2H-pyran-4-ylmethyl)-2,3-dihydro-1H-imidazo[4,5-b]pyridin-6-yl]-1H-pyrrolo[2,3-b]pyridine-3-carboxamide]: on human mTOR, the pIC50 was 5.30 to 7.00. Further, the GI50 in the assay on WM-266-4 cells fell in the range of 3000 to 25000 nM.

For `O=Cc1c[nH]c2ccc(-c3cnc4[nH]c(=O)n(CC5CCOCC5)c4c3)cc12` [Example 81, 5-[2-Oxo-1-(tetrahydro-2H-pyran-4-ylmethyl)-2,3-dihydro-1H-imidazo[4,5-b]pyridin-6-yl]-1H-indole-3-carbaldehyde], the pIC50 at human mTOR was greater than 7.30. Further, the GI50 with WM-266-4 cells was less than 3000 nM.

As for `O=c1[nH]c2ncc(-c3cc4cc[nH]c4nc3F)cc2n1CC1CCOCC1` [Example 79, 6-(6-Fluoro-1H-pyrrolo[2,3-b]pyridin-5-yl)-1-(tetrahydro-2H-pyran-4-ylmethyl)-1,3-dihydro-2H-imidazo[4,5-b]pyridin-2-one], at human mTOR, the negative logarithm of the IC50 (pIC50) was greater than 7.30. The GI50 in the assay with WM-266-4 cells was less than 3000 nM.

On to `C[C@@H]1CN(CCn2c(=O)[nH]c3ncc(-c4ccc5[nH]ccc5c4)cc32)C[C@H](C)O1` [Example 52, 1-{2-[cis-2,6-Dimethylmorpholin-4-yl]ethyl}-6-(1H-indol-5-yl)-1,3-dihydro-2H-imidazo[4,5-b]pyridin-2-one], for which the negative logarithm of the IC50 (pIC50) on human mTOR was greater than 7.30. Besides, the GI50 in the assay on WM-266-4 cells is less than 3000 nM.

`O=c1[nH]c2ncc(-c3ccc4[nH]ccc4c3)cc2n1CC1CC1` [Example 1, 1-(Cyclopropylmethyl)-6-(1H-indol-5-yl)-1,3-dihydro-2H-imidazo[4,5-b]pyridin-2-one]: the pIC50 at human mTOR was greater than 7.30. The GI50 in the assay with WM-266-4 cells is less than 3000 nM.

As to `CO[C@@H]1COC[C@H](Cn2c(=O)[nH]c3ncc(-c4cnc5[nH]ccc5c4)cc32)C1` (racemic) [Example 67, 1-{[cis-5-Methoxytetrahydro-2H-pyran-3-yl]methyl}-6-(1H-pyrrolo[2,3-b]pyridin-5-yl)-1,3-dihydro-2H-imidazo[4,5-b]pyridin-2-one], on human mTOR, the pIC50 is greater than 7.30. Besides, in the assay on WM-266-4 cells, the GI50 is less than 3000 nM.

On to `O=c1[nH]c2ncc(-c3ccc4[nH]ccc4c3)cc2n1C1CCOCC1` [Example 2, 6-(1H-Indol-5-yl)-1-(tetrahydro-2H-pyran-4-yl)-1,3-dihydro-2H-imidazo[4,5-b]pyridin-2-one], for which the pIC50 on human mTOR is 5.30 to 7.00. Further, the GI50 in the assay on WM-266-4 cells was less than 3000 nM.

Take `CN(CCO)c1c(-c2cnc3[nH]c(=O)n(C[C@H]4COCCO4)c3c2)cnc2[nH]ccc12` [Example 132, 1-[(2S)-1,4-Dioxan-2-ylmethyl]-6-{4-[(2-hydroxyethyl)(methyl)amino]-1H-pyrrolo[2,3-b]pyridin-5-yl}-1,3-dihydro-2H-imidazo[4,5-b]pyridin-2-one]: the pIC50 at human mTOR is 5.30 to 7.00. Besides, the GI50 in the assay on WM-266-4 cells was 3000 to 25000 nM.

Consider `O=c1[nH]c2ncc(-c3cnc4[nH]ccc4c3)cc2n1CC1COCCO1` (centres unmarked) [Example 38, 1-(1,4-Dioxan-2-ylmethyl)-6-(1H-pyrrolo[2,3-b]pyridin-5-yl)-1,3-dihydro-2H-imidazo[4,5-b]pyridin-2-one], for which, on human mTOR, the pIC50 is greater than 7.30. The GI50 in the assay with WM-266-4 cells was less than 3000 nM.

Take `Cc1c(-c2ccc3[nH]ccc3c2)cnc2[nH]c(=O)n(CC3CCOCC3)c12` [Example 8, 6-(1H-Indol-5-yl)-7-methyl-1-(tetrahydro-2H-pyran-4-ylmethyl)-1,3-dihydro-2H-imidazo[4,5-b]pyridin-2-one]: the pIC50 at human mTOR is 5.30 to 7.00. Also, the GI50 in the assay on WM-266-4 cells is 3000 to 25000 nM.

For the compound `N#Cc1c[nH]c2ncc(-c3cnc4[nH]c(=O)n(CC5CCOCC5)c4c3)cc12` [Example 95, 5-[2-Oxo-1-(tetrahydro-2H-pyran-4-ylmethyl)-2,3-dihydro-1H-imidazo[4,5-b]pyridin-6-yl]-1H-pyrrolo[2,3-b]pyridine-3-carbonitrile], at human mTOR, the pIC50 was greater than 7.30. The GI50 in the assay with WM-266-4 cells fell in the range of 3000 to 25000 nM.

For `CC(C1CCOCC1)n1c(=O)[nH]c2ncc(-c3cnc4[nH]ccc4c3)cc21` (centres unmarked) [Example 24, 6-(1H-Pyrrolo[2,3-b]pyridin-5-yl)-1-[1-(tetrahydro-2H-pyran-4-yl)ethyl]-1,3-dihydro-2H-imidazo[4,5-b]pyridin-2-one], the negative-log IC50 (pIC50) on human mTOR is greater than 7.30. Also, the GI50 in the assay with WM-266-4 cells was less than 3000 nM.
